Laboratory results from PubChem BioAssay AID248 (DTP/NCI, 2004).
Several values for one entry are separate records, joined by “and”; a condition that tells them apart may be missing. Identical values can stand only once. Toxic doses and inconclusive results are not listed.

Test system: L1210 leukemia ip in BDF1 mice, survival T/C
Assay: NCI In Vivo Anticancer Drug Screen. Data for tumor model L1210 Leukemia (intraperitoneal) in B6D2F1 (BDF1) mice
Settings: endpoint: mean survival time, higher = longer survival
In short: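 In this screen, tumor-bearing mice given compound are compared to those given vehicle, and their survival values are reported as a treated-to-control quotient.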

[1] = dose: 100.0 mg/kg/injection, schedule: Q01DX001 (ip), vehicle: carboxymethylcellulose (CMC)
[2] = dose: 200.0 mg/kg/injection, schedule: Q01DX001 (ip), vehicle: carboxymethylcellulose (CMC)
[3] = dose: 400.0 mg/kg/injection, schedule: Q01DX001 (ip), vehicle: carboxymethylcellulose (CMC)

Q: How did the T/C (dose: 50.0 mg/kg/injection, schedule: Q01DX009 (ip), vehicle: saline with Tween-80) turn out when `C=CC[n+]1ccccc1C` was run?
A: 91 % of control

Q: And the T/C (dose: 100.0 mg/kg/injection, schedule: Q01DX009 (ip), vehicle: saline with Tween-80)?
A: 91 % of control

Q: How did the T/C (dose: 25.0 mg/kg/injection, schedule: Q01DX009 (ip), vehicle: saline) turn out when `N#CCCCC[P+](c1ccccc1)(c1ccccc1)c1ccccc1` was run?
A: 107 % of control

Q: What about the T/C (dose: 50.0 mg/kg/injection, schedule: Q01DX009 (ip), vehicle: saline) of the same compound?
A: 93 % of control

Q: With `CCCCn1cnc2c(SC3CCCC3)ncnc21` as the compound, how does the T/C (dose: 100.0 mg/kg/injection, schedule: Q01DX001 (ip), vehicle: other) read?
A: 98 % of control

Q: What about the T/C (dose: 200.0 mg/kg/injection, schedule: Q01DX001 (ip), vehicle: other) of the same compound?
A: 96 % of control

Q: And the T/C (dose: 400.0 mg/kg/injection, schedule: Q01DX001 (ip), vehicle: other)?
A: 93 % of control

Q: With `O=C1CC(c2ccccc2)C2(c3ccccc3)OC12` (centres undefined) as the compound, how does the T/C (dose: 100.0 mg/kg/injection, schedule: Q01DX001 (ip), vehicle: saline with Tween-80) read?
A: 101 % of control

Q: And the T/C (dose: 200.0 mg/kg/injection, schedule: Q01DX001 (ip), vehicle: saline with Tween-80)?
A: 94 % of control

Q: What about the T/C (dose: 400.0 mg/kg/injection, schedule: Q01DX001 (ip), vehicle: saline with Tween-80) of the same compound?
A: 111 % of control

Q: What does the source list for `Brc1sccc1-c1cccc2ccccc12`?
A: T/C (dose: 100.0 mg/kg/injection, schedule: Q04DX003 (ip), vehicle: saline with Tween-80): 94 % of control; T/C (dose: 400.0 mg/kg/injection, schedule: Q04DX003 (ip), vehicle: saline with Tween-80): 91 % of control

Q: Which results are given for `C1OCC2(CO1)COCOC2`?
A: T/C (dose: 50.0 mg/kg/injection, schedule: Q01DX009 (ip), vehicle: acetone): 95 % of control; T/C (dose: 100.0 mg/kg/injection, schedule: Q01DX009 (ip), vehicle: acetone): 91 % of control; T/C (dose: 100.0 mg/kg/injection, schedule: Q04DX003 (ip), vehicle: saline): 95 % of control; T/C (dose: 200.0 mg/kg/injection, schedule: Q01DX009 (ip), vehicle: acetone): 93 % of control; T/C (dose: 200.0 mg/kg/injection, schedule: Q04DX003 (ip), vehicle: saline): 103 % of control; T/C (dose: 400.0 mg/kg/injection, schedule: Q04DX003 (ip), vehicle: saline): 105 % of control

Q: How did the T/C (dose: 100.0 mg/kg/injection, schedule: Q01DX001 (ip), vehicle: Klucel (hydroxypropylcellulose) (HPC)) turn out when `Cc1ccc(NC(=O)COc2ccc(Cl)cc2)c(C)c1` was run?
A: 99 % of control

Q: What about the T/C (dose: 100.0 mg/kg/injection, schedule: Q01DX009 (ip), vehicle: Klucel (hydroxypropylcellulose) (HPC)) of the same compound?
A: 100 % of control

Q: What about the T/C (dose: 100.0 mg/kg/injection, schedule: Q04DX003 (ip), vehicle: Klucel (hydroxypropylcellulose) (HPC)) of the same compound?
A: 96 % of control

Q: And the T/C (dose: 200.0 mg/kg/injection, schedule: Q01DX001 (ip), vehicle: Klucel (hydroxypropylcellulose) (HPC))?
A: 99 % of control

Q: And the T/C (dose: 200.0 mg/kg/injection, schedule: Q01DX009 (ip), vehicle: Klucel (hydroxypropylcellulose) (HPC))?
A: 102 % of control

Q: What about the T/C (dose: 200.0 mg/kg/injection, schedule: Q04DX003 (ip), vehicle: Klucel (hydroxypropylcellulose) (HPC)) of the same compound?
A: 96 % of control

Q: And the T/C (dose: 400.0 mg/kg/injection, schedule: Q01DX001 (ip), vehicle: Klucel (hydroxypropylcellulose) (HPC))?
A: 99 % of control

Q: And the T/C (dose: 400.0 mg/kg/injection, schedule: Q04DX003 (ip), vehicle: Klucel (hydroxypropylcellulose) (HPC))?
A: 98 % of control

Q: With `CC(C)OC(=O)c1ccc([N+](=O)[O-])cc1` as the compound, how does the T/C (dose: 100.0 mg/kg/injection, schedule: Q04DX002 (ip), vehicle: Klucel (hydroxypropylcellulose) (HPC)) read?
A: 95 % of control

Q: What about the T/C (dose: 200.0 mg/kg/injection, schedule: Q04DX002 (ip), vehicle: Klucel (hydroxypropylcellulose) (HPC)) of the same compound?
A: 110 % of control

Q: What about the T/C (dose: 400.0 mg/kg/injection, schedule: Q04DX002 (ip), vehicle: Klucel (hydroxypropylcellulose) (HPC)) of the same compound?
A: 95 % of control

Q: `Cc1ccc(CC(=O)N2CCOCC2)cc1` was tested. Which T/C [1] did it give?
A: 106 % of control

Q: What about the T/C [2] of the same compound?
A: 97 % of control

Q: What about the T/C [3] of the same compound?
A: 92 % of control

Q: What does the source list for `CC1(C(N)=O)CC2C=CC1C2` (centres undefined)?
A: T/C [2]: 98 % of control; T/C [3]: 95 % of control

Q: With `O=[N+]([O-])NC(=NCCNc1ccccc1)Nc1ccccc1` as the compound, how does the T/C (dose: 100.0 mg/kg/injection, schedule: Q04DX002 (ip), vehicle: gum acacia) read?
A: 98 % of control

Q: What about the T/C (dose: 200.0 mg/kg/injection, schedule: Q04DX002 (ip), vehicle: gum acacia) of the same compound?
A: 98 % of control

Q: What about the T/C (dose: 400.0 mg/kg/injection, schedule: Q04DX002 (ip), vehicle: gum acacia) of the same compound?
A: 88 % of control

Q: What does the source list for `CN(C)C(C(N)=O)C(=O)c1ccccc1` (centres undefined)?
A: T/C (dose: 100.0 mg/kg/injection, schedule: Q01DX001 (ip), vehicle: saline): 102 % of control; T/C (dose: 200.0 mg/kg/injection, schedule: Q01DX001 (ip), vehicle: saline): 104 % of control; T/C (dose: 400.0 mg/kg/injection, schedule: Q01DX001 (ip), vehicle: saline): 88 % of control

Q: What does the source list for `NC(CCSCc1ccc(N(CCCl)CCCl)cc1)C(=O)O` (centres undefined)?
A: T/C (dose: 3.0 mg/kg/injection, schedule: Q01DX Z (ip), vehicle: saline): 123 % of control; T/C (dose: 8.0 mg/kg/injection, schedule: Q01DX Z (ip), vehicle: saline): 113 % of control; T/C (dose: 12.0 mg/kg/injection, schedule: Q01DX Z (ip), vehicle: saline): 113 % of control; T/C (dose: 36.0 mg/kg/injection, schedule: Q01DX Z (ip), vehicle: saline): 114 % of control; T/C (dose: 54.0 mg/kg/injection, schedule: Q01DX Z (ip), vehicle: saline): 103 % of control and 90 % of control; T/C (dose: 81.0 mg/kg/injection, schedule: Q01DX Z (ip), vehicle: saline): 95 % of control; T/C [1]: 169 % of control; T/C [2]: 182 % of control; T/C [3]: 113 % of control
